Data published in a melting point compilation (Tetko et al.).
Non-standard residues stand in square brackets, D forms with d. Residues, ends and D or L forms follow the SMILES beside them. *: point of attachment. Trt = c1ccc(C(c2ccccc2)(c2ccccc2)*)cc1; Phe(2-Me) = Cc1ccccc1C[CH](N)C(=O)O; Tle = CC(C)(C)[CH](N)C(=O)O; X3 = CC(C)(C)OC(=O)CCC(=O)*; Boc = CC(C)(C)OC(=O)*; X4 = CCC(N*)C(OC)OC; OtBu = CC(C)(C)O*; NHNH2 = NN*

Row | melting point [°C] | SMILES
1 | 242 to 244 | CCC(NC(=O)C(CC(C)C)NC(=O)C(NC(=O)C(Cc1ccccc1C)NC(=O)C(CCC(=O)OC(C)(C)C)NC(=O)C(CC(=O)OC(C)(C)C)NC(=O)CCC(=O)OC(C)(C)C)C(C)(C)C)C(OC)OC (X3-D(OtBu)E(OtBu)[Phe(2-Me)][Tle]L-X4; configuration not given here)
2 | 57 to 58 | CCCCCCCCCCSc1c(SCCCCCCCCCC)c(SCCCCCCCCCC)c(C(O)=NCCO)c(C(=O)O)c1SCCCCCCCCCC
3 | 33 | CCCCCCCCCCCCCCCCCCOc1nc(OCCCCCCCCCCCCCCCCCC)nc(Oc2cc(-c3ccccc3)c(O)c(-c3ccccc3)c2)n1
4 | 120 | CC(C)[Si](OC(=O)Cc1cc(I)c(Oc2cc(I)c(OCC3CO3)c(I)c2)c(I)c1)(C(C)C)C(C)C (stereo not given)
5 | 213 to 217 | NCCC(N)c1ccccc1C(F)(F)F (stereo not given)
6 | 131 | CCN(CC)CCN=S(=O)(c1cccs1)c1cccs1
7 | > 350 | Cc1cc(C)c(N2c3ccccc3S(=O)(=O)c3cc(C=Cc4ccc(-c5ccc(C=Cc6ccc7c(c6)S(=O)(=O)c6ccccc6N7c6c(C)cc(C)cc6C)cc5)cc4)ccc32)c(C)c1
8 | 309 to 311 | Brc1cc(C(Br)(Br)C(Br)(Br)C(Br)(Br)c2ccccc2)c(Br)c(Br)c1Br
9 | 105 to 115 | CC(C)(C)c1cc(CCC(=O)OC2C(C)(C)C(OC(=O)CCc3cc(C(C)(C)C)c(O)c(C(C)(C)C)c3)C(C)(C)C(OC(=O)CCc3cc(C(C)(C)C)c(O)c(C(C)(C)C)c3)C2(C)C)cc(C(C)(C)C)c1O (stereo not given)
10 | 80 | CCCCCCCCNC(=O)CO
11 | 93 to 94 | O=C(OCCCOC(=O)C(OCc1ccc(-c2ccc(Cl)cc2)cc1)(C(F)(F)F)C(F)(F)F)C(OCc1ccc(-c2ccc(Cl)cc2)cc1)(C(F)(F)F)C(F)(F)F
12 | 37 to 39 | CCCCCCCCCCOc1cc(OCCCCCCCCCC)cc(N(CC(=O)OCOC(C)=O)CC(=O)OCOC(C)=O)c1
13 | 116 to 118 | N#Cc1ccc(C=Cc2ccc(OCc3ccc4ccccc4n3)cc2)cc1
14 | 192 to 194 | COc1cc(OC)c(/C=C/C(c2ccc(OC)c(NC(=O)COC(C)=O)c2)S(=O)(=O)C(/C=C/c2c(OC)cc(OC)cc2OC)c2ccc(OC)c(NC(=O)COC(C)=O)c2)c(OC)c1 (stereo not given)
15 | 217 | Cc1ccn2c(-c3ccnc(-c4ccc(OCc5cn(C)cn5)cc4)c3)c(-c3cccc(C)n3)nc2c1
16 | 15 to 22 | CCCCCCCC/C=C\CCCCCCCCN
17 | 100 to 102 | O=C(CC(CC(=O)OCc1cc(Br)cc(Br)c1O)C(=O)OCc1cc(Br)cc(Br)c1O)OCc1cc(Br)cc(Br)c1O
18 | 163 to 166 | Cc1c(O)cc(C(C)(C)C)c(O)c1C(=O)Nc1ccc(S(=O)(=O)C(F)(F)F)cc1Cl
19 | 165 to 168 | CC1(C)CC(C(O)CNc2nc(NCCCCCCNc3nc(NCC(O)C4CC(C)(C)NC(C)(C)C4)nc(NCC(O)C4CC(C)(C)NC(C)(C)C4)n3)nc(NCC(O)C3CC(C)(C)NC(C)(C)C3)n2)CC(C)(C)N1 (stereo not given)
20 | 152 to 156 | CCCCc1nc2c(N)nc3ccccc3c2n1CCCCNC(=O)Nc1ccc(Oc2ccc(NC(=O)NCCCCn3c(CCCC)nc4c(N)nc5ccccc5c43)cc2)cc1
21 | 58 to 60 | O=C(CC(=O)c1cc(F)c(F)cc1F)OCc1ccc(OCCCCCCCCCCC2c3c(c4ccccc4c4ccccc34)-c3c2c2ccccc2c2ccccc32)cc1
22 | 57 | CN(C)CCCN1c2ccccc2Sc2ccc(Cl)cc21
23 | 93.4 | CCCCCCCCOc1ncc(-c2ccc(C(OC(c3ccc(-c4cnc(OCCCCCCCC)nc4)cc3)C3COC4(CCCCC4)O3)C3COC4(CCCCC4)O3)cc2)cn1 (stereo not given)
24 | 43.5 to 44.5 | CC(OC(C)C(I)=C(I)I)C(I)=C(I)I (stereo not given)
25 | 239 to 242 | CC(C)CC(NC(=O)OC(C)(C)C)C(=O)NCC(=O)NCC(=O)NC(C)C(=O)NCC(=O)NC(CSC(c1ccccc1)(c1ccccc1)c1ccccc1)C(=O)NC(CCCCNC(=O)OC(C)(C)C)C(=O)NC(CC(N)=O)C(=O)NC(Cc1ccccc1)C(=O)NC(Cc1ccccc1)C(=O)NN (stereo not given) (Boc-LGGAGC(Trt)K(Boc)NFF-NHNH2; configuration not given here)
